Entries after “also recorded” stand apart in the source; their conditions may differ. Read-outs that look alike come from different tables or passages of the source.
Experiments:
[1] = Activation by rat liver microsomes (Example D); details: 100 μM; 0-2.5 mg/ml microsomal protein; 37° C.; with/without NADP+
Description: Methods: The microsomal fraction was prepared from fresh, saline-perfused rat liver. Liver tissue was homogenized in three volumes (w/v) of 0.2 M KH2PO4 buffer pH 7.5, containing 2 mM MgCl2 and 1 mM EGTA. The homogenate was centrifuged at 10,000 g for 1 hour and the supernatant recovered. The supernatant fraction was then recentrifuged at 100,000 g to pellet the microsomal fraction. The pellet was resuspended in homogenization buffer and recentrifuged. This process was repeated twice to ensure complete removal of cytosolic enzyme activities. After the last centrifugation, the microsomal pellet was resuspended in homogenization buffer at a final protein concentration of about 14 mg/ml.
For 7.1, reaction mixtures (0.5 ml) consisted of 0.2 M KH2PO4 pH 7.5, 13 mM glucose-6-phosphate, 2.2 mM NADP^+, 1 unit of glucose-6-phosphate dehydrogenase, 0-2.5 mg/ml microsomal protein and 100 μM 7.1. Reactions were carried out at 37° C. Aliquots were removed from the reaction mixtures at appropriate time points, and extracted with 60% methanol.
Reactions are monitored spectrophotometrically at 340 nm. A decrease in absorbance is indicative of cofactor depletion and thus of the enzymatic oxidation of prodrug to parent compound.

[2] = Oral bioavailability by urinary excretion method (Example M); assay type: in vivo; details: oral gavage 20 or 40 mg/kg parent equivalents; 24 h urine vs i.v. parent ~10 mg/kg; rat
Description: (§1) The oral bioavailability of prodrugs of a variety of phosphonic acid FBPase inhibitors was estimated by a urinary excretion method in rat.
Prodrugs of FBPase inhibitors were dissolved in 10% ethanol/90% polyethylene glycol (mw 400) and administered by oral gavage at doses of 20 or 40 mg/kg parent compound equivalents to 6-hour fasted, Sprague Dawley rats (220-240 g). The rats were subsequently placed in metabolic cages and urine was collected for 24 hours. The quantity of parent compound excreted into urine was determined by HPLC analysis. An ODS column eluted with a gradient from potassium phosphate buffer, pH 5.5 to acetonitrile was employed for these measurements. Detection was at 310-325 nm. […] Parent compounds were typically dissolved in dimethyl sulfoxide, and administered via the tail vein in animals that were briefly anesthetized with halothane.
Results for the FBPase inhibitor prodrugs were as follows

[3] = Tissue distribution: activation in tissue homogenates (Example T); assay type: in vitro ADME, rat; details: 100 μM; liver cytosol without microsomes
Description: 30.1 is tested for activation in homogenates from various tissues to assess the specificity of liver activation.
Methods: Rats are anaesthetized under halothane and tissues including liver, kidney, brain, heart, stomach, spleen, muscle, lung, and testis are excised and frozen in liquid nitrogen. Tissues are then homogenized in 1 to 3 volumes of 50 mM Tris/HCl, 154 mM KCl, 1 mM EGTA pH 7.4. The homogenate is centrifuged at 10,000 rpm and 4° C. for 30 minutes and the supernatant recovered. Liver cytosol is prepared by centrifuging the liver crude extract for 1 hour at 40,000 rpm and 4° C. Reaction mixtures consist of 50 mM KH2PO4 pH 7.4, 13 mM glucose-6-phosphate, 2 mM NADP^+, 10 units of glucose-6-phosphate dehydrogenase, 100 μM 30.1 and tissue homogenate at a protein concentration of 8.5 mg/ml. Reactions are incubated at 37° C. Aliquots are taken after 0 and 1 hour of incubation, and extracted with 60% methanol. The methanolic extracts are centrifuged at 14,000 rpm, and filtered prior to analysis by HPLC. The samples are loaded onto a YMC C8 column equilibrated with 0.1% TFA and eluted with a methanol gradient to 80%. Ihe activation of 30.1 to ara-AMP is monitored at […]
Results. […] Results of this nature indicate liver specific activation of 30.1.

[4] = Chemical stability in isotonic saline and phosphate buffer (Example A); assay type: physicochemical; details: room temperature
Description: Methods: Aliquots of a 10 μg/mL solution of 30.1 in isotonic saline and in 100 mM potassium phosphate buffers at pH 3, 7, and 9 were sampled after 1, 2, 5, and 7 days of incubation at room temperature and analyzed by HPLC. A Beckman Ultrasphere C8 column (4.6×150 mm) was employed and eluted with a gradient from 0.1% v/v trifluoroacetic acid to 80% methanol at a flow rate of 1.0 mL/min. Detection was at 254 nm. Using these conditions, the four isomers of 30.1 were readily separated and quantified. 1.3 was incubated at 100 μM in phosphate buffer at pH 7.4 and analyzed by HPLC as described in Example I following 1 hour of incubation at room temperature.
Thus, prodrugs of the invention are stable under a broad pH range.

[5] = Oral bioavailability from liver ara-ATP area under the curve (Example M); assay type: in vivo, rat; details: for oral bioavailability: hepatic ara-ATP AUC, fasted rats
Description: as §1
Methods: Fasted rats were dosed orally and intravenously with 30.1 at 3 and 10 mg/kg. Liver samples were obtained, processed, and analyzed for ara-ATP content as described in Example P.
[“Adenine Arabinoside: An Antiviral Agent” (1975) D. Pavan-Langston, Editor, Raven Press Publishers, New York].

normal C57 mice = details: for araATP, nmoles/g liver: day 22, 3 hours after final dosing
Description: Death and other obvious signs of toxicity such as weight loss, tremors, ruffling fur, hunching, prostration, diarrhea, lethargy, and hyperactivity were monitored. On day 22, 3 hours following the final dosing, mice were sacrificed and livers were removed and homogenized in 3 volumes (to liver weight) of 10% perchloric acid.

[6] = Liver ara-ATP and ara-hypoxanthine generation after intravenous administration (Example O); assay type: in vivo, rat; details: for liver ara-ATP area under the curve relative to 10 mg/kg equivalent dose of ara-AMP: over 8 hours; for ara-hypoxanthine (araH) in plasma / blood: 30.1 10 and 3 mg/kg, ara-AMP 10 mg/kg; for dose excreted in the form of ara-hypoxanthine in urine: ara-AMP 10 mg/kg equivalent dose
Description: The temporal profile of ara-hypoxanthine and ara-ATP generation following intravenous administration of 30.1 and free ara-AMP was compared in the rat. Method: 30.1 and ara-AMP (Sigma) were administered to normal, fasted rats intravenously (in saline) via tail vein catheters. At appropriate time points following drug a administration, animals were lightly anesthetized with halothane. The peritoneal cavity was then opened and a blood sample was obtained from the abdominal vena cava and the liver freeze-clamped and excised. The blood samples were heparinized and plasma was prepared. Plasma samples (100 μL) were mixed with 4 N perchloric acid (40 μL), vortexed, and then clarified by centrifugation. […] The eluent was monitored by UV absorbance at 254 nm. Livers were immediately homogenized in 3 volumes of 10% perchloric acid (w/w), and the extracts clarified by centrifugation at 2500×g (5 minutes). The resulting supernatants were removed and neutralized with 0.3 volumes of 3M KOH/3M KHCO3. […] Renal excretion of araH following i.v. administration of 30.1 or ara-AMP was determined as described in Example Q.

[7] = Stability in plasma (Example C)
Description: Methods: Compounds were incubated in plasma at 37° C., and aliqouts removed at appropriate time points over the course of 5-8 hours. The aliquots were extracted with 1.5 volumes of methanol and clarified by centrifugation. Supernatants were then evaporated to dryness and the residues reconstituted with 100 μL of isoionic saline and then analyzed by reverse phase HPLC.

[8] = Hepatic PMEA-diphosphate generation following oral administration (Example W); assay type: in vivo, rat; details: oral gavage 30 mg/kg PMEA equiv.; 4 h; fasted rats; n = 3
Description: Four hours post administration, liver samples were obtained and processed as described in Example […] was analyzed by anion exchange HPLC as described for […] in Example O.

isolated rat hepatocytes = test: Generation of PMEApp in isolated rat hepatocytes (Example V); assay type: cell-based; details: Dose 250 μM; 4 h; triplicate
Description: Methods: Hepatocytes were prepared from fed rats and incubated as described in Example I. Test compounds were prepared in DMSO and-diluted to 250 μM in the cell suspensions. Reactions were performed in triplicate. After 4 hours of incubation, aliquots of the suspension were removed and processed as described in Example I. Quantitation of PMEApp was performed by anion exchange HPLC also as described in Example I.

rat embryos in culture = details: cited from earlier work
[9] = intravenous; human patients; cited from earlier work

CC(C)Cn1c(-c2ccc(P3(=O)OCC(CO)CO3)o2)nc2ccc(Cl)cc21 (centres unmarked) [Compound 7.1, 6-Chloro-1-isobutyl-2-{5-[2′-(hydroxymethyl)-propan-1′,3′-yl]phosphono-2-furanyl}benzimidazole]
conversion to parent compound [1]: converted to parent compound in the presence, but not in the absence of, NADP^+
% OBAV Prodrug [2]: 10.9%

Nc1ncnc2c1ncn2[C@@H]1O[C@H](COP2(=O)OCCC(c3ccncc3)O2)[C@@H](O)[C@@H]1O (stereo partly drawn) [Compound 30.1, Adenine-9-beta-D-arabinofuranoside-5′-[1-(4-pyridyl)-1,3-propyl]monophosphate]
activation to ara-AMP in liver cytosol [3]: does not result in activation
decomposition in saline or buffer ([4]; 10 μg/mL, isotonic saline and 100 mM potassium phosphate buffers pH 3, 7, 9, 7 days, HPLC): No decomposition
period for which stable ([4]; isotonic saline / 100 mM potassium phosphate buffer pH 3, 7, 9): at least seven
oral bioavailability ([5]; 3 mg/kg oral vs intravenous): 13.7%
oral bioavailability ([5]; 10 mg/kg oral vs intravenous): 17.4%
production of the metabolite araH after oral administration ([5]; oral administration): without production of the metabolite araH
safety of administration (normal C57 mice; 22 day period, doses up to 200 mg/kg/d): safely administered
araATP, nmoles/g liver (normal C57 mice; Dose 20 mg/kg/d): 6.6 ± 1.6 nmoles/g liver
araATP, nmoles/g liver (normal C57 mice; Dose 200 mg/kg/d): 23.1 ± 9 nmoles/g liver
liver ara-ATP area under the curve relative to 10 mg/kg equivalent dose of ara-AMP ([6]; 30.1 3 mg/kg i.v., rat): 2.1 times higher
liver ara-ATP area under the curve relative to 10 mg/kg equivalent dose of ara-AMP ([6]; 30.1 10 mg/kg i.v., rat): 5.2 times higher
liver levels of araATP relative to araAMP (FIG. 1A) ([6]; i.v., 30.1 10 and 3 mg/kg vs araAMP 10 mg/kg): Significantly higher
ara-hypoxanthine (araH) in plasma / blood ([6]; i.v., rat): not detected; also recorded: no ara-hypoxanthine; also recorded: failed to produce detectable amounts; also recorded: no araH (a toxic metabolite) was detected
dose excreted in the form of ara-hypoxanthine in urine ([6]; i.v., rat): Nor was ara-hypoxanthine detected in urine
liver (araATP)/urine (araH) ratio in comparison with araAMP ([6]; rat): substantial shift
metabolism / degradation in fresh rat plasma ([7]; 37° C., 5-8 hours, HPLC): not degraded; also recorded: no evidence of metabolism
deamination by adenosine deaminase found in rat plasma ([7]; rat plasma): not susceptible

Nc1ncnc2c1ncn2CCOCP1(=O)OCCC(c2cccc(Cl)c2)O1 (centres unmarked) [Compound 31.1, 9-{2-[1-(3-Chlorophenyl)1,3-propylphosphonomethoxy]ethyl}adenine]
Hepatic PMEApp (nmoles/g/tissue) [8]: 11.1 ± 1.8 nmoles/g/tissue
PMEApp (isolated rat hepatocytes): 52.8 ± 1.5 nmol/g

C=CC(=O)c1ccccc1 [Phenyl vinyl ketone]
teratogenic activity (rat embryos in culture): lacks teratogenic activity

Nc1ncnc2c1ncn2[C@@H]1O[C@H](COP(=O)(O)O)[C@@H](O)[C@@H]1O [araAMP, reference compound]
ara-AMP in plasma [9]: not detected in plasma
araATP, nmoles/g liver (normal C57 mice; Dose 20 mg/kg/d): 2.5 ± 0.2 nmoles/g liver
araATP, nmoles/g liver (normal C57 mice; Dose 200 mg/kg/d): 19.1 ± 4.0 nmoles/g liver
ara-hypoxanthine (araH) in plasma / blood ([6]; i.v., rat, listed as AraAMP): rapidly and nearly completely converted to araH
ara-hypoxanthine (araH) in plasma / blood ([6]; i.v., rat, listed as ara-AMP): μmolar levels
dose excreted in the form of ara-hypoxanthine in urine ([6]; i.v., rat): 19.2%
plasma half-life relative to 30.1 ([6]; rat, compound not detectable in plasma): considerably shorter
